Legend:
[1] = system: ovariectomized SD rats (rat osteoporosis model), femora; assay: Animal efficacy test of increasing bone density and preventing osteoporosis (ovariectomized rat osteoporosis model); format: in vivo; conditions: left femora, 0.1 mg/100 g per day oral gavage, three months, N = 12, x ± s.d.
[2] = Observation of the general state and body weight in ovariectomized rats; format: in vivo, SD rats; conditions: daily observation

SMILES: CCCCC(=O)O[C@H]1CC[C@H]2[C@@H]3CCc4cc(O)ccc4[C@H]3CC[C@]12C [positive control, estradiol valerate]
- bone calcium content [1]: 178.2 ± 29.3 mg/g
- bone density BMD [1]: 0.207 ± 0.010 g/mL
- general state (exterior signs, behaviors, fecal property) compared with the model control group [2]: did not have significant difference in terms of exterior signs, behaviors, fecal property

— US20170014462A1, “BONE AND JOINT PROTECTION COMPOSITION AND USE THEREOF” (INFINITUS (CHINA) COMPANY LTD., priority 2015, published 2017)
